Assay results from patent US10369160B2, “Methods of treating cancer” (Intercept Pharmaceuticals, Inc., priority 2016, dated 2019).

Key:
[1] = test system: fibroblast growth factor 15 (Fgf15); experiment: Ileal FXR target gene expression, Fgf15, in Mdr2^−/− mice; type: in vivo; conditions: Mdr2^−/− groups only (not FXR^−/−)
Description: (§1) As expected, both INT-747 and INT-767 stimulated fibroblast growth factor 15 (Fgf15) and small heterodimer partner (Shp) gene expression in Mdr2^−/− groups only (FIGS. 7A and 7B).

[2] = test system: small heterodimer partner (Shp); experiment: Ileal FXR target gene expression, Shp, in Mdr2^−/− mice; type: in vivo; conditions: Mdr2^−/− groups only (not FXR^−/−)
Description: as §1

[3] = test system: Cholesterol 7 alpha-hydroxylase (cyp7a1); experiment: Hepatic FXR target gene expression, Cyp7a1, in Mdr2^−/− mice; type: in vivo; conditions: Mdr2^−/− mice only (not FXR^−/−)
Description: Cholesterol 7 alpha-hydroxylase (cyp7a1) is the rate limiting enzyme in the classical biosynthetic pathways which convert cholesterol into bile acids. Both INT-767 and INT-747 inhibited Cyp7a1 gene expression in Mdr2^−/− mice only (FIG. 8). The bile salt export pump (Bsep) is a membrane protein that uses energy of ATP hydrolysis to actively transport bile acid salts.

[4] = test system: bile salt export pump (Bsep); experiment: Hepatic FXR target gene expression, Bsep, in Mdr2^−/− mice; type: in vivo
Description: Cholesterol 7 alpha-hydroxylase (cyp7a1) is the rate limiting enzyme in the classical biosynthetic pathways which convert cholesterol into bile acids. […] The bile salt export pump (Bsep) is a membrane protein that uses energy of ATP hydrolysis to actively transport bile acid salts.

FXR^−/− mice = experiment: Hepatocarcinogenesis in FXR^−/− mice (tumors, LW/BW, ALT/AST, serum bile acids); conditions: for liver tumors found: diet 10 mg/kg for 15 months
Description: The effects of INT-747, INT-767, and control diet in Mdr2^−/− and FXR^−/− mice on the development of hepatocellular carcinoma were evaluated.
(§2) Mdr2^−/− and FXR^−/− mice were randomly divided into three experimental groups.
The mice were fed a specific rodent diet or a diet supplemented with INT-747, INT-767, or control diet for 15 months. All mice were housed under pathogen-free conditions in a temperature-controlled room (23° C.) on a 12-hour light/dark cycle and drank water ad libitum. […] After 16 months, the mice were sacrificed and serum, liver and intestine were collected. The total number of hepatic tumors was counted and the diameter of each tumor was measured.
(§3) • Mice (n=4) were fed control diet for 15 months. Group 2: INT-747 • Mice (n=8) were fed control diet supplemented with OCA at a dose of 10 mg/kg for 15 months. Group 3: INT-767 • Mice (n=15) were fed control diet supplemented with INT-767 at a dose of 10 mg/kg for 15 months.

Mdr2^−/− mice = experiment: Hepatocarcinogenesis in Mdr2^−/− mice (tumors, LW/BW, ALT/AST, serum bile acids)
Description: The effects of INT-747, INT-767, and control diet in Mdr2^−/− and FXR^−/− mice on the development of hepatocellular carcinoma were evaluated. INT-747 is a FXR agonist while INT-767 is a dual FXR/TGR5 agonist.
as §2
The mice were fed a specific rodent diet or a diet supplemented with INT-747, INT-767, or control diet for 15 months. […] After 16 months, the mice were sacrificed and serum, liver and intestine were collected. The total number of hepatic tumors was counted and the diameter of each tumor was measured.
as §3

FXR = target: T1, FXR (Homo sapiens, UniProt Q96RI1); experiment: Potency for FXR (INT-767 versus INT-747); conditions: greater than INT-747
T1 sequence (Q96RI1 1-486): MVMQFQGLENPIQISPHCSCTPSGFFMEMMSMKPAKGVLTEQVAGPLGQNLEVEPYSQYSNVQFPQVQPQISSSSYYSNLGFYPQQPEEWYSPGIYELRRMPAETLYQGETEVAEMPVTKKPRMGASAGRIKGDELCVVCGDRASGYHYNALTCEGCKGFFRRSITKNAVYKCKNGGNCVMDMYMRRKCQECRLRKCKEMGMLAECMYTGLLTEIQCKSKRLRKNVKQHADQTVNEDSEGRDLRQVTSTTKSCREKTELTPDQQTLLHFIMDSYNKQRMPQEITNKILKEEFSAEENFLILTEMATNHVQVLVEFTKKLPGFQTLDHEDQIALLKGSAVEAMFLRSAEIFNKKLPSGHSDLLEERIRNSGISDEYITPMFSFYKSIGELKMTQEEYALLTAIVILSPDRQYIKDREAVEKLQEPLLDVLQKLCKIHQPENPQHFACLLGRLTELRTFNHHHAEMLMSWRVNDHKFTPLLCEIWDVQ

| Compound | ileal Fgf15 gene expression [1] | ileal Shp gene expression [2] | hepatic Cyp7a1 gene expression [3] | hepatic Bsep induction [4] | liver tumors found (FXR^−/− mice) | liver tumors found (appearance/size) (Mdr2^−/− mice; diet 10 mg/kg for 15 months) | tumors with a diameter larger than 5 mm (Mdr2^−/− mice; diet 10 mg/kg for 15 months) [%] | potency for FXR relative to INT-747 (FXR) | ALT levels (FXR^−/− mice) | AST levels (FXR^−/− mice) | LW/BW ratio (liver weight/body weight) (FXR^−/− mice) | serum bile acid levels (FXR^−/− mice) | serum bile acid levels (Mdr2^−/− mice) | LW/BW ratio (liver weight/body weight) (Mdr2^−/− mice; compared to control and INT-747 treated mice) | hepatocellular carcinoma development (number of hepatic tumors) (Mdr2^−/− mice; diet 10 mg/kg for 15 months, compared to control) | ALT levels (Mdr2^−/− mice; vs control) | AST levels (Mdr2^−/− mice; vs control) |
| --- | --- | --- | --- | --- | --- | --- | --- | --- | --- | --- | --- | --- | --- | --- | --- | --- | --- |
| CC[C@H]1[C@@H](O)[C@@H]2[C@H](CC[C@]3(C)[C@@H]([C@H](C)CCC(=O)O)CC[C@@H]23)[C@@]2(C)CC[C@@H](O)C[C@@H]12 [INT-747, 6α-ethyl-3α,7α-dihydroxy-5β-cholan-24-oic acid] | stimulated | stimulated | inhibited | did not promote hepatic Bsep induction | several large liver tumors | clearly identifiable liver tumors | ~80 | – | – | – | – | – | – | – | – | – | – |
| CC[C@H]1[C@@H](O)[C@@H]2[C@H](CC[C@]3(C)[C@@H]([C@H](C)CCOS(=O)(=O)[O-])CC[C@@H]23)[C@@]2(C)CC[C@@H](O)C[C@@H]12.[Na+] [INT-767, 6α-ethyl-3α,7α,23-trihydroxy-24-nor-5β-cholan-23-sulphate sodium] | stimulated | stimulated | – | induced hepatic Bsep activation | several large liver tumors | minute tumors | – | about 10 fold | no difference | no difference | No difference | no reduction occurred | significantly reduced | significant reduction | clearly prevented hepatocellular carcinoma development | significantly reduced | significantly reduced |
| CC[C@H]1[C@@H](O)C2C3CC[C@H]([C@H](C)CCOS(=O)(=O)[O-])[C@@]3(C)CCC2[C@@]2(C)CC[C@@H](O)C[C@@H]12.[Na+] (stereo partly drawn) [INT-767, 6α-ethyl-3α,7α,23-trihydroxy-24-nor-5β-cholan-23-sulphate sodium] | – | – | inhibited | – | – | – | – | – | – | – | – | – | – | – | – | – | – |
